Reference: US20240228446A1, “PREPARATION METHOD FOR BICYCLIC COMPOUND AND APPLICATION AS ANTIFUNGAL AGENT” (priority 2021, published 2024)
Values after ≈ are worked out from the molar mass of the structure shown.

How the values were obtained:
[1] = tested on: Candida albicans ATCC MYA-2876; assay: Minimal inhibitory concentration (MIC) test on fungal growth (CLSI M27, yeasts); type: cell-based; details: lowest concentration inhibiting growth of yeast by 50%, 35° C., 24 hours, RPMI1640; for MIC: Candida albicans, read-out: MIC Candida albicans ATCC MYA-2876
How it was run: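 Broth microdilution followed CLSI M27 in RPMI1640 buffered with 0.165 M MOPS, pH 7.0, with a final inoculum of 500–2500 CFU/mL. Eleven 2-fold compound concentrations were tested, and plates were incubated 24 h at 35 °C. MIC was the lowest concentration giving 50% growth inhibition, read visually with optional OD530 assistance.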

[2] = tested on: Aspergillus fumigatus ATCC MYA-4609; assay: Minimal inhibitory concentration (MIC) test on fungal growth (CLSI M38, Aspergillus); type: cell-based; details: lowest concentration inhibiting Aspergillus by 100%, 35° C., 48 hours, RPMI1640; for MIC: Aspergillus fumigatus, read-out: MIC Aspergillus fumigatus ATCC MYA-4609
Procedure: • RPMI1640 medium: Brand: Gibco, article number: 31800-014 • Sabouraud dextrose agar (SDA): Brand: Hope Bio, article number: HB0253-81 • Voriconazole: Brand: Adamas, article number: 22105A • Amphotericin B: Brand: AbCam, article number: ab141199
MIC test was conducted in accordance with the guidelines and requirements of CLSI M27 (for yeasts) and M38 (for Aspergillus).
Strain preparation: The strains were inoculated 1 day in advance by streaking on SDA plates with glycerol strains stored at −80° C. The strains were cultured at 35° C. and 40 to 60% humidity for 18 to 24 hours. Streak inoculation of Aspergillus fumigatus and Cryptococcus neoformans was required to be done 3 days and 2 days in advance, respectively.
Preparation of culture medium and compounds: The liquid culture medium RPMI was prepared with pure water, and 0.165 mol/L MOPS was added to adjust the pH to 7.0. The mixture was filtered with a 0.22 μm-membrane filter, sterilized, and stored at 4° C. (no more than 3 months). 0.85% physiological saline was sterilized at 121° C. for 30 min and then stored at room temperature (no more than 1 week). The compounds were dissolved in DMSO to 12.8 mg/mL and stored at −20° C.
For Aspergillus, 5 mL of physiological saline was added to cover the mycelium, and the spores were gently scraped off with a spreader. The spore suspension was then transferred to a sterile test tube. An appropriate amount of spore suspension was taken and counted under a microscope using a hemocytometer. Spore concentration was adjusted to approximately 0.4 to 5×10^4 spores/mL using RPMI1640 medium.
The compound was diluted to the highest 800 μg/mL (or 400 μg/mL) with DMSO, and a 10-step 2-fold gradient dilution was performed, resulting in 11 concentrations. 2 μL of the gradient-diluted compound was transferred to the corresponding wells of a 96-well plate, and then 198 μL of the inoculum was transferred to the test plate. The plate was incubated at 35° C. for 24 hours (Aspergillus fumigatus and Cryptococcus neoformans were incubated for 48 and 72 hours, respectively).
After the incubation, the growth of the fungi was visually observed. The lowest concentration of the compound that inhibited the growth of yeast by 50% (inhibited Aspergillus by 100%) was defined as the minimum inhibitory concentration (MIC, μg/mL). A magnifying glass or reading at OD530 nm could be used to assist in determining the MIC. Photos were taken of the test plates for record keeping.

SMILES	MIC [1] [µg/mL]	MIC [2] [µg/mL]	MIC Candida albicans ATCC MYA-2876 [1] [µg/mL]	MIC Aspergillus fumigatus ATCC MYA-4609 [2] [µg/mL]
CC(Oc1ccc(C23CC(C(F)(F)C(O)(Cn4cnnn4)c4ccc(F)cc4F)(C2)C3)cc1)C(O)C(F)(F)F (stereo not shown) [Compound 135]	0.016 (≈ 0.0285 µM)	8 (≈ 14.3 µM)	–	–
COC(COc1ccc(C23CC(C(F)(F)C(O)(Cn4cnnn4)c4ccc(F)cc4F)(C2)C3)cc1)C(F)(F)F (stereo not shown) [Compound 136]	0.016 (≈ 0.0285 µM)	4 (≈ 7.14 µM)	–	–
OC(COc1ccc(C23CC(C(F)(F)C(O)(Cn4cnnn4)c4ccc(F)cc4F)(C2)C3)cc1)C(F)(F)F (stereo not shown) [Compound 51]	0.0078 (≈ 0.0143 µM)	4 (≈ 7.32 µM)	–	–
OC(Cn1cnnn1)(c1ccc(F)cc1F)C(F)(F)C12CC(c3ccc(O[C@H]4CCOC4)cc3)(C1)C2 (stereo partly shown) [Compound 41]	0.0078 (≈ 0.0155 µM)	8 (≈ 15.9 µM)	–	–
C[C@H](C12CC(c3ccc(OC[C@H](O)C(F)(F)F)cc3)(C1)C2)[C@](O)(Cn1cncn1)c1ccc(F)cc1F (relative stereo) [Compound 125A]	≤ 0.0039	0.5 (≈ 0.955 µM)	–	–
OC1(COc2ccc(C34CC(C(F)(F)[C@](O)(Cn5cnnn5)c5ccc(F)cc5F)(C3)C4)cc2)CC(F)(F)C1 [Compound 149A]	≤ 0.0039	2 (≈ 3.61 µM)	–	–
O[C@@H](COc1ccc(C23CC(C(F)(F)[C@](O)(Cn4cnnn4)c4ccc(F)cc4F)(C2)C3)cc1)C1CC1 (relative stereo) [Compound 144B]	≤ 0.0039	4 (≈ 7.71 µM)	–	–
Oc1ccc(C23CC(C(F)(F)C(O)(Cn4cncn4)c4ccc(F)cc4F)(C2)C3)cc1 (stereo not shown) [Compound 21]	≤ 0.0039	2 (≈ 4.61 µM)	–	–
CC(C)(O)COc1ccc(C23CC(C(F)(F)[C@](O)(Cn4cncn4)c4ccc(F)cc4F)(C2)C3)cc1 [Compound 37A]	≤ 0.0039	1 (≈ 1.98 µM)	–	–
O[C@@](Cn1cnnn1)(c1ccc(F)cc1F)C(F)(F)C12CC(c3ccc(OCC(F)(F)F)cc3)(C1)C2 [Compound 3A]	≤ 0.0039	1 (≈ 1.94 µM)	–	–
OC(Cn1cnnn1)(c1ccc(F)cc1F)C(F)(F)C12CC(c3ccc(O[C@@H]4CCOC4)cc3)(C1)C2 (stereo partly shown) [Compound 40]	≤ 0.0039	16 (≈ 31.7 µM)	–	–
CC(C)(O)COc1ccc(C23CC(C(F)(F)C(O)(Cn4cncn4)c4ccc(F)cc4F)(C2)C3)cc1 (stereo not shown) [Compound 37]	≤ 0.0039	2 (≈ 3.96 µM)	–	–
N#Cc1ccc(C23CC(C(F)(F)[C@](O)(Cn4cncn4)c4cc(F)ccc4F)(C2)C3)cc1 [Compound 29A]	≤ 0.0039	1 (≈ 2.26 µM)	–	–
OC(Cn1cncn1)(CC12CC(c3ccc(OCC(F)(F)F)cc3)(C1)C2)c1ccc(F)cc1F (stereo not shown) [Compound 49]	0.0078 (≈ 0.0163 µM)	1 (≈ 2.09 µM)	–	–
O[C@@](Cn1cncn1)(c1ccc(F)cc1F)C(F)(F)C12CC(C1)C2 [Compound 10A]	≤ 0.0039	1 (≈ 2.93 µM)	–	–
CS(=O)(=O)COc1ccc(C23CC(C(F)(F)C(O)(Cn4cnnn4)c4ccc(F)cc4F)(C2)C3)cc1 (stereo not shown) [Compound 131]	0.0078 (≈ 0.0148 µM)	8 (≈ 15.2 µM)	–	–
O[C@](Cn1cncn1)(CC12CC(c3ccc(OCC(F)(F)F)cc3)(C1)C2)c1ccc(F)cc1F [Compound 49A]	≤ 0.0039	0.5 (≈ 1.04 µM)	–	–
OC(Cn1cnnn1)(c1ccc(F)cc1F)C(F)(F)C12CC(c3ccc(OCC(F)F)cc3)(C1)C2 (stereo not shown) [Compound 22]	0.0078 (≈ 0.0156 µM)	4 (≈ 8.03 µM)	–	–
N#Cc1ccc(C23CC(C(F)(F)[C@](O)(Cn4cncn4)c4ccc(F)cc4F)(C2)C3)cc1 [Compound 27A]	≤ 0.0039	0.5 (≈ 1.13 µM)	–	–

SMILES	MIC [1] [µg/mL]	MIC [2] [µg/mL]	MIC Candida albicans ATCC MYA-2876 [1] [µg/mL]	MIC Aspergillus fumigatus ATCC MYA-4609 [2] [µg/mL]
O[C@H](COc1ccc(C23CC(C(F)(F)[C@](O)(Cn4cnnn4)c4ccc(F)cc4F)(C2)C3)cc1)C(F)(F)F [Compound 51A]	≤ 0.0039	1 (≈ 1.83 µM)	–	–
O[C@H](COc1ccc(C23CC(C[C@](O)(Cn4cncn4)c4ccc(F)cc4F)(C2)C3)cc1)C(F)(F)F [Compound 90A]	≤ 0.0039	0.5 (≈ 0.981 µM)	–	–
COc1ccc(C23CC(C(F)(F)C(O)(Cn4cnnn4)c4ccc(F)cc4F)(C2)C3)cc1 (stereo not shown) [Compound 1]	0.015 (≈ 0.0335 µM)	8 (≈ 17.8 µM)	–	–
O[C@](Cn1cnnn1)(c1ccc(Cl)cc1F)C(F)(F)C12CC(c3ccc(OCC(F)(F)F)cc3)(C1)C2 [Compound 7B]	2 (≈ 3.75 µM)	1 (≈ 1.88 µM)	–	–
COCCCOc1ccc(C23CC(C(F)(F)C(O)(Cn4cnnn4)c4ccc(F)cc4F)(C2)C3)cc1 (stereo not shown) [Compound 61]	0.016 (≈ 0.0316 µM)	8 (≈ 15.8 µM)	–	–
O[C@@](Cn1cnnn1)(c1ccc(F)cc1F)C(F)(F)C12CC(c3ccc(O[C@@H]4CCOC4)cc3)(C1)C2 [Compound 40A]	–	–	≤0.0039	4 (≈ 7.93 µM)
CC(C)(O)COc1ccc(C23CC(C(F)(F)[C@](O)(Cn4cnnn4)c4ccc(F)cc4F)(C2)C3)cc1 [Compound 36A]	0.0078 (≈ 0.0154 µM)	4 (≈ 7.9 µM)	–	–
COc1ccc(C23CC(C(F)(F)[C@](O)(Cn4cnnn4)c4ccc(F)cc4F)(C2)C3)cc1 [Compound 1A]	–	–	0.0078 (≈ 0.0174 µM)	4 (≈ 8.92 µM)
OC(COc1ccc(C23CC(C(F)(F)C(O)(Cn4cnnn4)c4ccc(F)cc4F)(C2)C3)cc1)C1CC1 (stereo not shown) [Compound 144]	0.0078 (≈ 0.015 µM)	8 (≈ 15.4 µM)	–	–
Oc1ccc(C23CC(C(F)(F)[C@](O)(Cn4cncn4)c4ccc(F)cc4F)(C2)C3)cc1 [Compound 21A]	≤ 0.0039	1 (≈ 2.31 µM)	–	–
OC(COc1ccc(C23CC(C(F)(F)C(O)(Cn4cnnn4)c4ccc(F)cc4F)(C2)C3)cc1)CC(F)(F)F (stereo not shown) [Compound 142]	–	–	0.0078 (≈ 0.0139 µM)	8 (≈ 14.3 µM)
OC(Cn1cnnn1)(c1ccc(F)cc1F)C(F)(F)C12CC(c3ccc(OCC4(F)COC4)cc3)(C1)C2 (stereo not shown) [Compound 121]	0.0078 (≈ 0.0149 µM)	8 (≈ 15.3 µM)	–	–
O[C@@H](COc1ccc(C23CC(C(F)(F)C(O)(Cn4cnnn4)c4cc(F)ccc4F)(C2)C3)cc1)C(F)(F)F (stereo in doubt) [Compound 166]	0.06 (≈ 0.11 µM)	8 (≈ 14.6 µM)	–	–
N#Cc1ccc(C23CC(C(F)(F)C(O)(Cn4cncn4)c4ccc(F)cc4F)(C2)C3)cc1 (stereo not shown) [Compound 27]	≤ 0.0039	1 (≈ 2.26 µM)	–	–
OC(COc1ccc(C23CC(C(F)(F)C(O)(Cn4cnnn4)c4ccc(F)cc4F)(C2)C3)cc1)C(F)F (stereo not shown) [Compound 137]	≤ 0.0039	8 (≈ 15.1 µM)	–	–
O[C@@](Cn1cnnn1)(c1ccc(F)cc1F)C(F)(F)C12CC(c3ccc(OCC4(F)COC4)cc3)(C1)C2 [Compound 121A]	–	–	≤0.0039	4 (≈ 7.66 µM)
O[C@H](COc1ccc(C23CC(C(F)(F)[C@@](O)(Cn4cnnn4)c4ccc(F)cc4F)(C2)C3)cn1)C(F)(F)F [Compound 97B]	–	–	0.0078 (≈ 0.0142 µM)	8 (≈ 14.6 µM)
OCC(F)(F)COc1ccc(C23CC(C(F)(F)C(O)(Cn4cnnn4)c4ccc(F)cc4F)(C2)C3)cc1 (stereo not shown) [Compound 50]	0.016 (≈ 0.0303 µM)	4 (≈ 7.57 µM)	–	–
CS(=O)(=O)COc1ccc(C23CC(C(F)(F)[C@](O)(Cn4cnnn4)c4ccc(F)cc4F)(C2)C3)cc1 (stereo in doubt) [Compound 131A]	≤ 0.0039	4 (≈ 7.6 µM)	–	–
